Data taken from patent US5358945A, “Pyrimidine compound and pharmaceutically acceptable salts thereof” (Mitsui Petrochemical Industries, Ltd., priority 1990, dated 1994).

How the values were obtained:
mouse = experiment: Acute toxicity in mouse (Table 10); assay type: in vivo
Method: The acute toxicity of the compounds of the invention was examined by the following method.
Male ddy-strain 5-week old mice, 4-6 per group, were used as experimental animals. Each of the compounds was dissolved or suspended in saline and administered perorally (p.o.) or intraperitoneally (i.p.), and the toxicity of the compound was assessed 24 hours after the administration.

[1] = tested on: Mouse neuroblastoma cells NS-20Y; experiment: Neurite appearance in mouse neuroblastoma NS-20Y cells (Table 8); assay type: cell-based;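 further: cells grown in polyornithine-coated dishes, with timing counted from the start of culture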
Mouse neuro 2a cells = experiment: Neurite outgrowth of mouse neuroblastoma neuro 2a cells (Table 7); assay type: cell-based; conditions: mean ± S.D.
Method: The biological activities in vitro of the compounds of formula (I) on cells of the nervous system were tested. The cells tested were mouse neuroblastoma cell line neuro-2a (Dainippon Pharmaceutical Co., Ltd.) which have been established as the cells of the nervous system. The above nerve cells were grown in an incubator at 37° C. in the presence of 5% carbon dioxide gas exponentially, and the cultured for a certain period of time together with the compounds of formula (I).
The effects of the compounds of this invention on neuroblastoma cells were examined by the following method.
Mouse neuro 2a cells in the logarithmic growth period in the Dulbecco's modified Eagle's medium [DMEM, containing 100 units/ml of penicillin G sodium and 100 micrograms/ml of streptomycin sulfate] containing 10% of FCS were seeded in a 48-well plate so that the number of cells was 1,000 cells/well, and cultured for one day in 0.25 ml of the culture fluid in each well in an incubator containing 5% of carbon dioxide gas in air at 37° C. The medium was replaced by a medium containing each antibiotics and FCS and the cells were further cultured for 24 hours. Then, a 4% aqueous glutaraldehyde solution in the same amount as a medium (0.25 ml) was added, and the culture was left to stand at room temperature for 2 hours to fix the cells. After washing with water, a 0.05% aqueous solution of methylene blue was added to stain the cells. Under a microscope, the number of cells containing outgrown neurites (cells having at least one neurite with a length of at least two times as large as the long diameter of the cell) was counted visually, and the proportion of these cells in the entire cells was calculated. The well was observed over 5 or more visual fields (at least 2% of the entire surface area of the well) continuous to the left and right from a mark put at the center of the well, and more than 200 cells was counted. One drug compound was used in 6 different concentrations at most, and three runs were conducted for each concentration.

[2] = i.p., 24 hours after administration

| SMILES | Estimated LD50 (mouse; in vivo, ip) [mg/kg] | The number of cells in which neurites appeared/Total number of cells ([1]; 24 hour, 0.2 mM) | The number of cells in which neurites appeared/Total number of cells ([1]; 48 hour, 0.2 mM) | Ratio of the number of cells having neurites with a length of at least two times as large as the diameter of cells to the total number of cells (Mouse neuro 2a cells; 0.01 mM) [%] | Ratio of the number of cells having neurites with a length of at least two times as large as the diameter of cells to the total number of cells (Mouse neuro 2a cells; 0.03 mM) [%] | Ratio of the number of cells having neurites with a length of at least two times as large as the diameter of cells to the total number of cells (Mouse neuro 2a cells; 0.3 mM) [%] | Ratio of the number of cells having neurites with a length of at least two times as large as the diameter of cells to the total number of cells (Mouse neuro 2a cells; 1 mM) [%] | The number of cells in which neurites appeared/Total number of cells ([1]; 24 hour, 0.5 mM) | The number of cells in which neurites appeared/Total number of cells ([1]; 48 hour, 0.5 mM) | Ratio of the number of cells having neurites with a length of at least two times as large as the diameter of cells to the total number of cells (Mouse neuro 2a cells; 0.1 mM) [%] | Estimated LD50 (mouse; [2]) [mg/kg] | The number of cells in which neurites appeared/Total number of cells ([1]; 24 hour, 0.1 mM) | The number of cells in which neurites appeared/Total number of cells ([1]; 48 hour, 0.1 mM) |
| --- | --- | --- | --- | --- | --- | --- | --- | --- | --- | --- | --- | --- | --- |
| CC(=O)c1ccc(C(=O)N(C)c2ccnc(N3CCC(c4ccccc4)CC3)n2)cc1 [Compound 176] | > 1000 | 4/50 | 4/50 | 18.4 ± 2.0 | 11.5 ± 2.1 | 13.6 ± 0.9 | 14.8 ± 2.9 |  |  |  |  |  |  |
| COC(=O)c1ccc(C(=O)N(C)c2ccnc(N3CCCCC3)n2)cc1 [Compound 192] | 500 to 1000 | 5/50 | 7/50 |  |  | 13.8 ± 2.8 |  | 5/50 | 11/50 | 8.0 ± 1.3 |  |  |  |
| CN(C(=O)c1ccc(C=O)cc1)c1ccnc(N2CCCCC2)n1 [Compound 200] |  | 8/50 | 11/50 |  |  | 19.7 ± 3.1 |  | 16/50 | 18/50 | 5.8 ± 1.3 | > 1000 |  |  |
| CC(=O)c1ccc(C(=O)N(C)c2ccnc(N3CCCCC3)n2)cc1 [Compound 208] | > 1000 | 2/50 | 6/50 |  |  | 7.9 ± 0.6 | 12.7 ± 3.0 | 3/50 | 5/50 |  |  |  |  |
| CC(=O)N(C)c1ccnc(N2CCSCC2)n1 [Compound 216] | 500 to 1000 | 3/50 |  |  |  | 4.4 ± 1.3 | 15.8 ± 3.2 | 3/50 | 4/50 |  |  |  |  |
| O=C1CCCN1c1ccnc(N2CCCCC2)n1 [Compound 273] |  | 15/50 | 16/50 | 5.3 ± 0.8 |  | 24.0 ± 3.2 | 10.3 ± 4.0 | 18/50 | 22/50 | 7.7 ± 2.0 | > 500 | 10/50 | 8/50 |
